Data: paper PMC13226201 (Frontiers in Pharmacology, 2026)
pIC50: −log10 of the molar value.

Target: human VMAT2 (Homo sapiens, UniProt Q05940)
Experiment: [3H]-α-DHTBZ radioligand binding in vesicles from human VMAT2-transfected HEK293 cells
Settings: read-out: IC50 [3H]-α-DHTBZ binding

Sequence of human VMAT2 (Q05940 whole entry): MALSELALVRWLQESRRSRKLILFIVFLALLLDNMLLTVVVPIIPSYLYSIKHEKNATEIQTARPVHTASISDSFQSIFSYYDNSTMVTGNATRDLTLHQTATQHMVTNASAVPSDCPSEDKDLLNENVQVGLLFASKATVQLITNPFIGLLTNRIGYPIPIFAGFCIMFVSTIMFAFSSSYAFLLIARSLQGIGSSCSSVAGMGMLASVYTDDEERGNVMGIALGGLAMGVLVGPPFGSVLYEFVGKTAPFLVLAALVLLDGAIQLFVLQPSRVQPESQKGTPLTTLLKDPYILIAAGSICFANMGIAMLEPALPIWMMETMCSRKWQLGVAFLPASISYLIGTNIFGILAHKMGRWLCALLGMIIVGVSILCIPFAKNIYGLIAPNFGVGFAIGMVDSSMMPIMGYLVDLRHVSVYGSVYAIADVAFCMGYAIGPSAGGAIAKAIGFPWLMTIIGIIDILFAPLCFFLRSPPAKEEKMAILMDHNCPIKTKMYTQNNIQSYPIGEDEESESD

Work on COc1cc2c(cc1OC)C1CC(=O)C(CC(C)C)CN1CC2 (stereo not shown) [TBZ, Tetrabenazine] yielded a pIC50 of 7.72.
